From patent US20240148745A1, “COMPOUNDS FOR USE IN PROGRESSIVE MULTIPLE SCLEROSIS” (FONDAZIONE CENTRO SAN RAFFAELE, priority 2021, published 2024) come the findings set out here.

Assay [1] has as its system rat oligodendrocyte progenitor CG4 line. Nature of the assay: Differentiation assay on rat oligodendrocyte progenitor CG4 line (HCS, mCherry+). It counts as cell-based. As to conditions: 1 μM; for CG4 differentiation compared with 9cis-RA positive control: secondary screen of 49 selected compounds, 5 days. From the text: Primary validation on CG4 line toxicity and differentiation. An innovative OPC line was developed for fast and reliable high content screening (HCS) of small compounds inducing oligodendrocyte differentiation. The line was genetically engineered by lentiviral transduction of rat CG4 cells (PubMed=1613821; DOI=10.1002/jnr.490310125; Louis J. C., Magal E., Muir D., Manthorpe M., Varon S.; CG-4, a new bipotential glial cell line from rat brain, is capable of differentiating in vitro into either mature oligodendrocytes or type-2 astrocytes. J. Neurosci. Res. 31:193-204(1992) to express mCherry fluorescent reporter (Evercooren, Anne & Avellana-Adalid, V. & Vitry, Sandrine & Nait-Oumesmar, Brahim & Lachapelle, Francois. (1997). Expansion of Oligodendrocyte Progenitors for Myelin Repair. 10.1007/978-1-4615-5949-8_21) in mature oligodendrocytes only, and EGFP at all stage of the oligodendroglial lineage: both the generation of mature oligodendrocytes (wmNl-mCherry) and the morphological changes associated with differentiation (CMV-EGFP) can be therefore monitored in a single assay. mCherry expression occurred only in O4+/GalC+ differentiated oligodendrocytes and GFP was ubiquitously expressed at all developmental stages. The line so obtained was validated using compounds with well-established effects on oligodendrocyte differentiation (cAMP and T3). Cell-based assay was standardized on the HCS platform (ArrayScanXTI, Brain and Spine Institute (Paris), validating the pro-differentiation effects of clemastine^27 and 9cis-retinoic acid.^28 For HCS validation of 274 compounds identified through in silico screen, double-fluo CG4 line cells were plated in 96 well-plates, 6500 cells/cm^2 and left for 24 h in proliferation. The other day, compounds were added (1 μM) for next 5 days of differentiation, with ⅔ medium changed after 3 days. 9-cis Retinoic Acid (9cis-RA; […]) served as a positive control, negative controls were basal (N1) medium and vehicle (basal+0.1% DMSO). Each compound was tested in triplicate and were imaged with ArrayScanXTI system (35 fields/well) after 5 days of differentiation.
FIG. 4 provides a schematic representation of High Content Screening (HCS) validation of the 274 compounds identified through in silico screening using CG4 line. […] In addition, the whole short list of 160 non-toxic compounds were screened using the CG4 high content phenotypic assay to further confirm the data from primary screening and to potentially select additional compounds with pro-myelinating activities. From this screening of the short list, 49 hit compounds were identified that increase differentiation either of CG4 cells or primary OPCs (FIG. 6).

A further assay concerns rat primary OPC cultures. Briefly: Differentiation of rat primary OPC into MBP+ OLs. It counts as cell-based. As to conditions: 96 h, 4 days of differentiation, read-out: MBP+ differentiation (MBP+/SOX10+ OLs plus compounds / plus basal medium). On the procedure: Secondary validation on primary rat OPC differentiation. Re-validation of the best performing compounds promoting OPC differentiation (fold change >1.5) was performed on primary rat OPC cultures in 96 well-plate run in triplicates by triple immunolabeling for CNPase, MBP and SOX10 as a readout. Compounds at […] were added for 4 days of differentiation and then cell cultures were imaged with ArrayScanXTI platform, number of MBP+OLs were quantified by semi-automated software. Basal medium served as a negative control, 9 cis-RA ([…]) was a positive control.
Re-validation of the 49 compounds selected from the short list (160 compounds) using rat primary OPC cultures (compounds tested in triplicates in 3 independent experiments. The secondary validation screen of these compounds performed on rat primary OPC cultures selected 17 best lead compounds with a pro-differentiation activity (MBP+/SOX10+OLs plus compounds/MBP+SOX10+ plus basal medium fold increase) induced a strong differentiation into MBP+OLs (fold increase >1.6). Results are shown in FIG. 7.

The test system of assay [2] is murine cortical neurons (14 DIV). Briefly: NMDA-mediated neuroprotective assay (CCK8 viability). It counts as cell-based, mouse. As to conditions: 1 μM, 3 h pre-treatment, NMDA 8 μM 24 h, p<0.05. How it is done:
To assess neuroprotective activity of 160 selected non-toxic compounds on primary murine cortical neurons, obtained as described in the previous paragraph, ([…]), cultures were pre-treated with 1 μM compounds for either 3 or 24 hours, followed by 24 hours chronic stimulation with NMDA (8 μM) to induce neuronal damage. Each test plate included: a negative control (untreated), vehicle-treated control (0.02% vol/vol DMSO), a positive neurotoxic control—staurosporine 0.1 μM, a stressor—NMDA 8 μM, a positive neuroprotective control—NAC 300 μM, and a combination of stressor +neuroprotective molecule (NMDA+NAC). Cell viability was measured with Cell Counting Kit-8 assay compared to NMDA-treated control.
The potential neuroprotective activity of 160 selected non-toxic compounds was evaluated on murine cortical neurons (14 DIV) with either 3 h (FIG. 13) or 24 h compounds pre-treatment (FIG. 14). In assay with 3 h pre-treatment, 17 compounds were identified as potential NMDA-neuroprotective hits (marked with black asterisk in FIG. 13, stat. significant at p<0.05, Kruskal-Wallis test with post-hoc two-stage linear step-up procedure of Benjamini, Krieger and Yekutieli multiple comparison correction).

In another assay the test system is mouse cortical neurons. Briefly: Morphological integrity evaluation, NMDA 8 μM (MAP2 neurite length and branching). It counts as cell-based. As to conditions: 3 h pre-treatment, NMDA 8 μM 24 h; Z>0.5 criteria. On the procedure: Apart of viability/metabolic readout in NMDA-mediated neurotoxicity assay, a neuronal structural integrity was evaluated by MAP2 staining. Mouse cortical neurons (14 DIV) cultured in MW96 plates were fixed with 4% paraformaldehyde (PFA). Fixed cells were incubated with blocking solution (PBS 1×, donkey serum 5%, Triton 0.1%) for 1-hour, primary antibody (rabbit α-MAP2, 1:250, Millipore) was applied in the same solution overnight at +4° C. […] Nuclei were stained with 4′-6-diamidino-2-phenylindole (DAPI, Roche). Microscopy was performed using ArrayScan™XTI (ThermoFisher) imaging platform. 15 images per well were acquired and analyzed by CellProfiler. Total neurite length and the total number of non-trunk branches were analyzed. Total neurite length and the total number of branching were evaluated from 15 images/well, each compound or control was tested in triplicates. The total neurite length and total number of branches were converted to a standardized Z-score using formula: Xij=((Xij−μ)/σ), where xij is the raw measurement of the compound located in well (i, j), and μ and σ are, respectively, the mean and the standard deviation of all measurements of the plate.^31
The morphological integrity of mouse cortical neurons upon chronic 24 h NMDA (8 μM) exposure with compounds pre-treatment (3 h) in preventive regimen was evaluated. Control (basal), DMSO, N-acetylcysteine (NAC) served as positive controls, while staurosporine and NMDA were negative controls.

Where a name gives a salt, the structure may show the parent alone.

`CN1[C@@H]2CC[C@H]1C[C@@H](OC(c1ccccc1)c1ccccc1)C2` [BENZATROPINE]: in assay [1], the “CG4 differentiation, fold increase relative to control” value is on record as “over 1.5 fold” and the “CG4 differentiation compared with 9cis-RA positive control” value is given as “promoting differentiation significantly higher than 9cis-RA positive control”. For the same compound, the fold induction at 1 µM in the assay on rat primary OPC cultures is greater than 1.6.
On to `NC(=O)[C@@H]1CC[C@H](c2ccc(OCc3ccccc3F)cc2)N1` [Raxatrigine], for which the “neuroprotection of viability/metabolic activity against NMDA” value in assay [2] is listed as “hit compounds”. In addition, in the assay with mouse cortical neurons, the “preservation of neurite length and network integrity (branching)” value (shortened to “preservation”) was “preserved both neurite length and the network integrity (branching)”.
Take `N[C@@H](CO)C(=O)O` [L-Serine]: the “neuroprotection of viability/metabolic activity against NMDA” value in assay [2] is “hit compounds”.
Consider `Cc1[nH]c(/C=C2\C(=O)Nc3ccc(F)cc32)c(C)c1C(=O)NC[C@H](O)CN1CCOCC1` [SU14813], for which the fold induction at 1 µM in the assay on rat primary OPC cultures was greater than 1.6.
Turning to `Nc1ncnc2nc[nH]c12` [Adenine], in assay [2], the “neuroprotection of viability/metabolic activity against NMDA” value is reported as “hit compounds”. The “preservation” value in the assay on mouse cortical neurons is “preserved both neurite length and the network integrity (branching)”.
For the compound `CN1[C@@H]2CC[C@H]1C[C@@H](OC(=O)[C@H](CO)c1ccccc1)C2` [Hyoscyamine], the “neuroprotection of viability/metabolic activity against NMDA” value in assay [2] is “hit compounds”. Besides, in the assay on mouse cortical neurons, the “preservation” value was “preserved both neurite length and the network integrity (branching)”.
On to `CCOC(=O)c1cnc2c(cnn2CC)c1NN=C(C)C` [Etazolate], for which the fold induction at 1 µM in the assay on rat primary OPC cultures is greater than 1.6.
Take `CC(C)(C)c1cc(NC(=O)Nc2ccc(-c3cn4c(n3)sc3cc(OCCN5CCOCC5)ccc34)cc2)no1` [Quizartinib]: the “CG4 differentiation compared with 9cis-RA positive control” value in assay [1] was “promoting differentiation significantly higher than 9cis-RA positive control”. Further, the fold induction at 1 µM in the assay with rat primary OPC cultures is greater than 1.6.
Consider `O=C(Nc1ccccc1Br)N[C@@H]1CCN(c2ccc(C(F)(F)F)cn2)C1` [SB-705498], for which the “neuroprotection of viability/metabolic activity against NMDA” value in assay [2] is recorded as “hit compounds”.
Take `COCCNCc1ccc(-c2cc3nccc(Oc4ccc(NC(=S)NC(=O)Cc5ccc(F)cc5)cc4F)c3s2)nc1` [MGCD-265]: the fold induction at 1 µM with rat primary OPC cultures was greater than 1.6.
Consider `COc1cc(OC)nc(O[C@H](C(=O)O)C(OC)(c2ccccc2)c2ccccc2)n1`, for which, in assay [1], the “CG4 differentiation compared with 9cis-RA positive control” value is “promoting differentiation significantly higher than 9cis-RA positive control”. The fold induction at 1 µM in the assay on rat primary OPC cultures is greater than 1.6.
As to `CC(=O)Nc1cccc2c1c(Sc1ccc(Cl)cc1)c(C)n2CC(=O)O` [AZD1981], the “neuroprotection of viability/metabolic activity against NMDA” value in assay [2] is given as “hit compounds”.
On to `CN(C(=O)/C=C/c1ccoc1)[C@@H]1CC[C@@]2(O)[C@H]3Cc4ccc(O)c5c4[C@@]2(CCN3CC2CC2)[C@H]1O5` [Nalfurafine hydrochloride], for which, in assay [2], the “neuroprotection of viability/metabolic activity against NMDA” value is “hit compounds”.
Regarding `FC(F)(F)c1ccc(CNc2ccc(Cc3c[nH]c4ncc(Cl)cc34)cn2)cn1` [PLX-3397], in assay [1], the “CG4 differentiation compared with 9cis-RA positive control” value is listed as “promoting differentiation significantly higher than 9cis-RA positive control”. Further, the fold induction at 1 µM in the assay with rat primary OPC cultures is greater than 1.6.
For the compound `CC1(C)O[C@@H]2C[C@H]3[C@@H]4C[C@H](F)C5=CC(=O)C=C[C@]5(C)[C@@]4(F)[C@@H](O)C[C@]3(C)[C@]2(C(=O)CO)O1` [Fluocinolone acetonide, Fluocinolone Acetonide], in assay [2], the “neuroprotection of viability/metabolic activity against NMDA” value was “hit compounds”.
For `Cn1c(=O)c(Oc2ccc(F)cc2F)cc2cnc(NC(CCO)CCO)nc21` [Pamapimod], the “neuroprotection of viability/metabolic activity against NMDA” value in assay [2] is “hit compounds”.
In the case of `CNC(=O)c1cccc2cc(Oc3ccnc4cc(OCC5(N)CC5)c(OC)cc34)ccc12` [LUCITANIB], the “CG4 differentiation compared with 9cis-RA positive control” value in assay [1] is reported as “promoting differentiation significantly higher than 9cis-RA positive control”. Further, in the assay with rat primary OPC cultures, the fold induction at 1 µM was greater than 1.6.
Turning to `C[C@H](Nc1ncnc2[nH]cnc12)c1cc2ccc(F)cc2nc1-c1ccccn1` [AMG-319], the “neuroprotection of viability/metabolic activity against NMDA” value in assay [2] is on record as “hit compounds”.
